Assay results taken from article PMC8943139, “Cryo-EM structure of transmembrane AAA+ protease FtsH in the ADP state” (Communications Biology, 2022).

B1: Thermotoga maritima FtsH (TmFtsH) H423Y mutant, full length (enzyme, UniProt Q9WZ49 1-610, looked up)
chain: MNRSNIWNLLFTILIIVTLFWLARFFYVENSPVSKLSYTSFVQMVEDERSVVSEVVIRDDGVLRVYTKDGRVYEVDAPWAVNDSQLIEKLVSKGIKVSGERSGSSSFWINVLGTLIPTILFIVVWLFIMRSLSGRNNQAFTFTKSRATMYKPSGNKRVTFKDVGGAEEAIEELKEVVEFLKDPSKFNRIGARMPKGILLVGPPGTGKTLLARAVAGEANVPFFHISGSDFVELFVGVGAARVRDLFAQAKAHAPCIVFIDEIDAVGRHRGAGLGGGHDEREQTLNQLLVEMDGFDSKEGIIVMAATNRPDILDPALLRPGRFDKKIVVDPPDMLGRKKILEIHTRNKPLAEDVNLEIIAKRTPGFVGADLENLVNEAALLAAREGRDKITMKDFEEAIDRVIAGPARKSKLISPKEKRIIAYYEAGHAVVSTVVPNGEPVHRISIIPRGYKALGYTLHLPEEDKYLVSRNELLDKLTALLGGRAAEEVVFGDVTSGAANDIERATEIARNMVCQLGMSEELGPLAWGKEEQEVFLGKEITRLRNYSEEVASKIDEEVKKIVTNCYERAKEIIRKYRKQLDNIVEILLEKETIEGDELRRILSEEFEKVVE
notes: FtsH (Filamentation Temperature Sensitive Protein H) of Thermotoga maritima, full-length cDNA in the pET24-derived pMSCG-7 plasmid, with the H423Y mutation; 610 residues are named in the comparison with YME1; The vector probably adds an N-terminal His6 tag with a TEV site (surmised), and no cleavage is described; The atomic model 7TDO covers only the ATPase and protease domains (2484 residues in …)

How the values were obtained:
[1] = biological target: T1, TmFtsH (FtsH from Thermotoga maritima), full length (Thermotoga maritima, UniProt Q9WZ49, H423Y); test: cryo-EM structure ([…] A); assay type: binding; details: six ADP per hexamer, one in each ATPase domain; endogenous co-purified ADP, none added; MSP1D1 nanodiscs, pH 7.6; C6 symmetry
T1 construct: full length, His-tag purification (HisTrap), E. coli BL21(DE3) pLysS membranes, LDAO, reconstituted in MSP1D1 nanodiscs with soybean polar lipids; homohexamer; only ATPase and protease domains modelled (2484 residues per hexamer)

[2] = biological target: the molecule itself; test: cryo-EM structure; TmFtsH H423Y in MSP1D1 nanodiscs (soybean polar lipids), diluted in 20 mM HEPES pH 7.6, 100 mM NaCl, 0.05% CHAPS; no ADP or ATP added; C6 reconstruction at 3.15 Å (C1: 3.4 Å) of the ATPase and protease domains; full-length reconstruction at 7.9 Å without symmetry

Molecule	cryo-EM structure (3.15 A) [1]	stoichiometry N [2]
Nc1ncnc2c1ncn2[C@@H]1O[C@H](COP(=O)(O)OP(=O)(O)O)[C@@H](O)[C@H]1O [ADP]	ADP bound endogenously to TmFtsH and survived the co-purification and reconstitution processes	–
B1	–	6
